Laboratory results from patent US20230203056A1, “HETEROCYCLIC COMPOUNDS” (Hoffmann-La Roche Inc., priority 2020, published 2023).

The compounds below were run against T1, MAGL (Homo sapiens, UniProt Q99685) (assay: 2-AG assay: MAGL inhibitory activity, hydrolysis of 2-arachidonoylglycerol to arachidonic acid followed by mass spectrometry). Conditions: 50 pM MAGL, 8 μM 2-arachidonoylglycerol, 15 min preincubation, 30 min incubation at RT.
T1 sequence (Q99685 1-303): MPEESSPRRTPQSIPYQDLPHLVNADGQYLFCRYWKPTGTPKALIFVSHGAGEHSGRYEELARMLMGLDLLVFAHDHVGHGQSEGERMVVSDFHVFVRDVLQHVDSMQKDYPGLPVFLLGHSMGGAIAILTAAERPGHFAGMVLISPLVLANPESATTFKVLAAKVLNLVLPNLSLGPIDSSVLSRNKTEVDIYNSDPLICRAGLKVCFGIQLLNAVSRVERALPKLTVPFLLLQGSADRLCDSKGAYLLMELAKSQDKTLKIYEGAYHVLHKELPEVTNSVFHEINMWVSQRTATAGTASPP
Format: biochemical
Protocol: Compounds were profiled for MAGL inhibitory activity by determining the enzymatic activity by following the hydrolysis of the natural substrate 2-arachidonoylglycerol resulting in arachidonic acid, which can be followed by mass spectrometry. This assay is hereinafter abbreviated “2-AG assay”.
The 2-AG assay was carried out in 384 well assay plates (PP, Greiner Cat #784201) in a total volume of 20 μL. Compound dilutions were made in 100% DMSO (VWR Chemicals 23500.297) in a polypropylene plate in 3-fold dilution steps to give a final concentration range in the assay from 12.5 μM to 0.8 pM. 0.25 μL compound dilutions (100% DMSO) were added to 9 μL MAGL in assay buffer (50 mM TRIS (GIBCO, 15567-027), 1 mM EDTA (Fluka, 03690-100 mL), 0.01% (v/v) Tween. After shaking, the plate was incubated for 15 min at RT. To start the reaction, 10 μL 2-arachidonoylglycerol in assay buffer was added. The final concentrations in the assay was 50 pM MAGL and 8 μM 2-arachidonoylglyerol. After shaking and 30 min incubation at RT, the reaction was quenched by the addition of 40 μL of acetonitrile containing 4 μM of d8-arachidonic acid. The amount of arachidonic acid was traced by an online SPE system (Agilent Rapidfire) coupled to a triple quadrupole mass spectrometer (Agilent 6460). A C18 SPE cartridge (G9205A) was used in an acetonitrile/water liquid setup. The mass spectrometer was operated in negative electrospray mode following the mass transitions 303.1→259.1 for arachidonic acid and 311.1→267.0 for d8-arachidonic acid. The activity of the compounds was calculated based on the ratio of intensities [arachidonic acid/d8-arachidonic acid].
In the case of `O=C(N1CC(c2ccc(C3(C(F)(F)F)CC3)cc2)C1)N1C[C@H]2COc3cn[nH]c3[C@H]2C1` [Example 4, (+)- or (−)-[(1R,9S)-7-Oxa-3,4,11-triazatricyclo[7.3.0.0^2,6]dodeca-2(6),4-dien-11-yl]-[3-[4-[1-(trifluoromethyl)cyclopropyl]phenyl]azetidin-1-yl]methanone], the IC50 is reported as 917 nM. For `O=C(N1CC(c2ccc(C3(C(F)(F)F)CC3)cc2)C1)N1C[C@@H]2COc3cn[nH]c3[C@@H]2C1` [Example 3, (−)- or (+)-[(1S,9R)-7-Oxa-3,4,11-triazatricyclo[7.3.0.0^2,6]dodeca-2(6),4-dien-11-yl]-[3-[4-[1-(trifluoromethyl)cyclopropyl]phenyl]azetidin-1-yl]methanone], the IC50 was 13 nM. Work on `O=C(N1CC(OCc2ccc(C(F)(F)F)cc2F)C1)N1C[C@@H]2COc3cn[nH]c3[C@@H]2C1` (racemic) [Example 2, [3-[[2-Fluoro-4-(trifluoromethyl)phenyl]methoxy]azetidin-1-yl]-[rac-(1S,9R)-7-oxa-3,4,11-triazatricyclo[7.3.0.0^2,6]dodeca-2(6),4-dien-1l-yl]methanone] yielded an IC50 of 67 nM. `O=C(N1CC(OCc2ccc(C(F)(F)F)cc2F)C1)N1C[C@H]2CCc3nn[nH]c3[C@H]2C1` (single isomer, unassigned) [Example 8, (+)- or (−)-[3-[[2-Fluoro-4-(trifluoromethyl)phenyl]methoxy]azetidin-1-yl]-[(5aS,8aR)-4,5,5a,6,8,8a-hexahydro-1H-pyrrolo[3,4-e]benzotriazol-7-yl]methanone] showed an IC50 of 523 nM. `O=C(N1C[C@H]2COc3cn[nH]c3[C@H]2C1)N1CC2(CC(Cc3ccc(F)cc3F)C2)C1` (single isomer, unassigned) [Example 6, (+)- or (−)-[6-[(2,4-Difluorophenyl)methyl]-2-azaspiro[3.3]heptan-2-yl]-[(1R,9S)-7-oxa-3,4,11-triazatricyclo[7.3.0.0^2,6]dodeca-2(6),4-dien-11-yl]methanone] was tested, and the IC50 was 9 nM. For `O=C(N1CC(OCc2ccc(C(F)(F)F)cc2F)C1)N1C[C@@H]2c3[nH]nnc3CO[C@@H]2C1` (single isomer, unassigned) [Example 10, (+)- or (−)-[3-[[2-Fluoro-4-(trifluoromethyl)phenyl]methoxy]azetidin-1-yl]-[(1R,9S)-8-oxa-3,4,5,11-tetrazatricyclo[7.3.0.02,6]dodeca-2(6),4-dien-1l-yl]methanone], the IC50 was 1220 nM. Work on `O=C(N1CC(OCc2ccc(C(F)(F)F)cc2F)C1)N1C[C@@H]2CCc3cn[nH]c3[C@@H]2C1` (racemic) [Example 1, [3-[[2-Fluoro-4-(trifluoromethyl)phenyl]methoxy]azetidin-1-yl]-[rac-(5aR,8aS)-4,5,5a,6,8,8a-hexahydro-1H-pyrrolo[3,4-g]indazol-7-yl]methanone] yielded an IC50 of 8 nM. In the case of `O=C(N1CC(OCc2ccc(C(F)(F)F)cc2F)C1)N1C[C@@H]2CCc3nn[nH]c3[C@@H]2C1` (single isomer, unassigned) [Example 7, (−)- or (+)-[3-[[2-Fluoro-4-(trifluoromethyl)phenyl]methoxy]azetidin-1-yl]-[(5aR,8aS)-4,5,5a,6,8,8a-hexahydro-1H-pyrrolo[3,4-e]benzotriazol-7-yl]methanone], the IC50 is reported as 50 nM. `O=C(N1C[C@@H]2COc3cn[nH]c3[C@@H]2C1)N1CC2(CC(Cc3ccc(F)cc3F)C2)C1` (single isomer, unassigned) [Example 5, (−)- or (+)-[6-[(2,4-Difluorophenyl)methyl]-2-azaspiro[3.3]heptan-2-yl]-[(1S,9R)-7-oxa-3,4,11-triazatricyclo[7.3.0.0^2,6]dodeca-2(6),4-dien-1l-yl]methanone] showed an IC50 of 488 nM. Compound `O=C(N1CC(OCc2ccc(C(F)(F)F)cc2F)C1)N1C[C@@H]2OCc3nn[nH]c3[C@@H]2C1` (single isomer, unassigned) [Example 9, (−)- or (+)-[3-[[2-Fluoro-4-(trifluoromethyl)phenyl]methoxy]azetidin-1-yl]-[(1S,9R)-8-oxa-3,4,5,11-tetrazatricyclo[7.3.0.02,6]dodeca-2(6),4-dien-11-yl]methanone] has an IC50 of 2700 nM.
